Key:
healthy volunteers [1] = test: Daily stool diaries (bowel function), CDC study; format: in vivo, human; settings: for Ease of passage (scale1-7) / Stool consistency by Bristol Stool Form Scale / Stool frequency per day: N = 20, mean ± SEM
Experimental: 60 patients (mean age 38.7 years, 43 female) were enrolled to the study. Three groups (n=20 each) were randomized to one oral capsule daily containing placebo, 500 mg, or 1000 mg CDC, each for a period of 4 days. Gastrointestinal (GI) and colonic transit was conducted by a scintigraphic method (Burton et al., J. Nucl. Med., 38:1807-1810 (1997) and Cremonini et al., Aliment Pharmacol. Ther., 16:1781-1790 (2002)) during the last 48 hours of drug ingestion. All participants completed bowel function diaries that documented the time of each bowel movement, stool consistency (Bristol Stool Form Scale), the ease of passage (ranging from 1=“manual disimpaction” to 7=“incontinence”), and completeness of evacuation (1=“yes” and 0=“no”). In the first study, patients recorded diaries during at least 3 days of the baseline period and the 4 days of treatment. The diaries were recorded for at least 3 days of the baseline period and during the entire treatment period of the second study.

healthy volunteers [2] = test: Scintigraphic gastrointestinal and colonic transit, CDC study; format: in vivo, human; settings: for AC t1/2 (ascending colon emptying) / CF 6 (colonic filling at 6 hours) / GC 4 (colonic geometric center) / GC 24 (colonic geometric center at 24 hours) / GC 48 (colonic geometric center at 48 hours) / GE t1/2: N = 20, mean ± SEM
Experimental: A double-blind, placebo-controlled, parallel-group, randomized study was conducted to evaluate the effects of oral sodium chenodeoxycholate (CDC) or placebo, once daily for 4 days, in healthy volunteers. In a second trial, oral colesevelam hydrochloride or placebo were administered for 12-14 days in patients with diarrhea-predominant irritable bowel syndrome (IBS-D). The study was approved by a review board and all participants signed informed consent. In both studies, allocation was concealed from the study investigators. In the first trial, participants were randomized to placebo, CDC 500 mg, or 1000 mg (20 per group). Sodium CDC (unconjugated) was purchased from Calbiochem (EMD Biosciences Inc., San Diego, Calif. 92121), and the Mayo pharmacy prepared identical placebo and CDC capsules, all of which were coated with the pH sensitive polymer, methacrylate (Eudragit® S-100, Rohm Pharmaceuticals, Darmstadt D-64293, Germany). The latter dissolves at the neutral pH found in the distal ileum and was used to ensure ileocolonic delivery of the CDC or placebo. All participants were screened for idiopathic bile acid malabsorption (BAM) with fasting serum 7alpha-hydroxy-4-cholesten-3-one (7αC4). 60 patients (mean age 38.7 years, 43 female) were enrolled to the study. Three groups (n=20 each) were randomized to one oral capsule daily containing placebo, 500 mg, or 1000 mg CDC, each for a period of 4 days. Gastrointestinal (GI) and colonic transit was conducted by a scintigraphic method (Burton et al., J. Nucl. Med., 38:1807-1810 (1997) and Cremonini et al., Aliment Pharmacol. Ther., 16:1781-1790 (2002)) during the last 48 hours of drug ingestion. An adaptation of an established scintigraphic method was used to measure gastrointestinal and colonic transit (Burton et al., J. Nucl. Med., 38:1807-1810 (1997) and Cremonini et al., Aliment Pharmacol. Ther., 16:1781-1790 (2002)). Patients with IBS-D had baseline measurement of colonic transit since this is known to be a significant covariate in treatment responses. The primary endpoints were the colonic geometric center (GC) at 24 hours (GC 24) and ascending colon (AC) emptying t1/2. […] The capsule was ingested following an overnight fast. After the capsule emptied from the stomach, a 99 mTc-sulfur colloid radiolabeled meal was ingested. It consisted of two scrambled eggs, one slice of whole wheat bread, and one glass of whole milk. This meal allowed measurement of gastric and small bowel transit. Subjects ingested standardized meals for lunch and dinner at 4 and 8 hours after the radiolabeled meal, respectively. Abdominal scans were obtained every hour for the first 6 hours (the first 4 hours for the assessment of gastric emptying) and at 8, 24, and 48 hours after ingestion of the ^111In capsule. The counts in the stomach and each of four colonic regions, ascending, transverse, descending, and combined sigmoid and rectum, were quantitated with a variable region of interest program. Counts were corrected for isotope decay, tissue attenuation, and downscatter of ^111In counts in the 99 mTc window. Gastric emptying t1/2 is a measure of the time for 50% of the radiolabeled meal (identifiable by radiolabeled tracer) to empty from the stomach. Colonic filling at 6 hours, or the proportion of the radiolabeled meal to have reached the colon at 6 hours, is an indirect measurement of small bowel transit time. Overall colonic transit was summarized as the colonic geometric center (GC) at specified times. The GC is the weighted average of counts in the different colonic regions (ascending (AC), transverse (TC), descending (DC), rectosigmoid (RS)) and stool, respectively 1 to 5. At any time, the proportion of counts in each colonic region is multiplied by its weighting factor as follows: (%AC×1+%TC×2+%DC×3+%RS×4+%stool×5)/100=GC Thus, a higher GC reflects a faster colonic transit. Ascending colon emptying was summarized by the t1/2 calculated by linear interpolation of values on the AC emptying curve.

healthy volunteers [3] = test system: healthy volunteers; parameters: species or system human; settings: in vivo
Experimental: An independent statistician, who otherwise was not involved in the study, generated the randomization codes, and the allocation was concealed. All clinical and laboratory study personnel were blinded throughout the study until all data were locked and analyzed. Clinical safety monitoring was conducted by the study investigators throughout the study. 60 patients (mean age 38.7 years, 43 female) were enrolled to the study. Three groups (n=20 each) were randomized to one oral capsule daily containing placebo, 500 mg, or 1000 mg CDC, each for a period of 4 days. Gastrointestinal (GI) and colonic transit was conducted by a scintigraphic method (Burton et al., J. Nucl. Med., 38:1807-1810 (1997) and Cremonini et al., Aliment Pharmacol. Ther., 16:1781-1790 (2002)) during the last 48 hours of drug ingestion.

[4] = CDC 500 mg once daily for 4 days
[5] = CDC 1000 mg once daily for 4 days

SMILES: C[C@H](CCC(=O)[O-])[C@H]1CC[C@H]2[C@@H]3[C@H](O)C[C@@H]4C[C@H](O)CC[C@]4(C)[C@H]3CC[C@]12C.[Na+] [CDC, sodium chenodeoxycholate]
- Ease of passage (scale1-7) (healthy volunteers [1]; [4]): 4.1 ± 0.06
- Stool consistency by Bristol Stool Form Scale (healthy volunteers [1]; [4]): 4.29 ± 0.19
- Stool frequency per day (healthy volunteers [1]; [4]): 1.50 ± 0.18 per day
- Effect on sense of complete evacuation (in words) (healthy volunteers [1]; CDC 500 mg or 1000 mg vs placebo, p=0.02): significant overall treatment effects
- Ease of passage (scale1-7) (healthy volunteers [1]; [5]): 4.3 ± 0.06
- Stool consistency by Bristol Stool Form Scale (healthy volunteers [1]; [5]): 4.80 ± 0.15
- Stool frequency per day (healthy volunteers [1]; [5]): 2.01 ± 0.15 per day
- Effect on stool form/consistency (in words) (healthy volunteers [1]; FIG. 3, p<0.0001): more liquid consistency stool
- Effect on stool frequency (in words) (healthy volunteers [1]; FIG. 3, p<0.001): increase in stool frequency
- AC t1/2 (ascending colon emptying) (healthy volunteers [2]; [4]): 12.1 ± 2.1 h
- CF 6 (colonic filling at 6 hours) (healthy volunteers [2]; [4]): 49.6 ± 7.0%
- GC 4 (colonic geometric center) (healthy volunteers [2]; [4]): 0.87 ± 0.18
- GC 24 (colonic geometric center at 24 hours) (healthy volunteers [2]; [4]): 2.80 ± 0.27
- GC 48 (colonic geometric center at 48 hours) (healthy volunteers [2]; [4]): 4.10 ± 0.21
- GE t1/2 (healthy volunteers [2]; [4]): 2.115 ± 0.0883 h
- Treatment effect on colonic filling at 6 hours (in words) (healthy volunteers [2]; CDC 500 mg or 1000 mg vs placebo): not detected
- AC t1/2 (ascending colon emptying) (healthy volunteers [2]; [5]): 10.7 ± 1.9 h
- CF 6 (colonic filling at 6 hours) (healthy volunteers [2]; [5]): 46.0 ± 7.1%
- GC 4 (colonic geometric center) (healthy volunteers [2]; [5]): 1.27 ± 0.33
- GC 24 (colonic geometric center at 24 hours) (healthy volunteers [2]; [5]): 3.76 ± 0.30
- GC 48 (colonic geometric center at 48 hours) (healthy volunteers [2]; [5]): 4.92 ± 0.05
- GE t1/2 (healthy volunteers [2]; [5]): 2.383 ± 0.235 h
- Effect on colonic transit (GC) at 24 and 48 hours (in words) (healthy volunteers [2]; FIG. 3, 1000 mg p<0.0001, 500 mg p<0.01 vs placebo): overall acceleration of colonic transit
- Adverse event: headache, rate (healthy volunteers [3]): 20-25%
- Adverse events: gas, bloating and nausea, participants (healthy volunteers [3]): 5-20%

— patent US20110038829A1, “METHODS AND MATERIALS FOR TREATING DIARRHEA” (MAYO FOUNDATION FOR MEDICAL EDUCATION AND RESEARCH, priority 2009, published 2011)
